Measurements published in patent US4626540A, “Substituted 1-amino-4-nitro-acridinones and methods of treating bacterial infections and leukemia with them” (Warner-Lambert Company, priority 1984, dated 1986).

Experiments:
[1] = test system: L1210 murine leukemia cell lines; experiment: In vitro antitumor screening (PDC test), L1210 murine leukemia cell growth; assay type: cell-based; conditions: Mus musculus, 72 h; L1210 cells, 37° C., three days; value is ID50 multiplied by 10^7
Description: Another test protocol is the in vitro antitumor screening (PDC test) of compounds of the present invention on L1210 murine leukemia cell lines. L1210 cells, a murine leukemia cell line, were grown in RPMI 1640 supplemented with 5% fetal bovine serum and gentamicin (50 μg/ml).
Drug dilutions were prepared in the apropriate solvent and 20 μl of each dilution were added to 24-well Linbro tissue culture plats, followed by the addition of M 2.0 ml of cell suspension containing 3×10^4 cells per ml. Solvent and medium controls were included in each test. After incubation at 37° C. for three days in 5% CO2, the contents of each well were removed and the cells counted in a ZBI Coulter counter. Percent growth was calculated relative to the controls and the levels of drug activity wre expressed as ID50 in moles per liter using probit paper.

HCT-8 cells = experiment: In vitro proliferating human colon adenocarcinoma (HCA) cell screen, HCT-8 cells; assay type: cell-based; conditions: 60-65 hours at 37° C., value is ID50 multiplied by 10^7;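 also: ID50 is the molar concentration giving 50% growth inhibition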
Description: One test protocol is the in vitro proliferating human colon adenocarcinoma (HCA) cell screen. In this test, HCT-8 cells (HCA cell line received from Yale University) are trypsinized using trypsin-EDTA. A single cell suspension is achieved by passing the cells through a 26-gauge needle with a 20-cc syringe. A cell suspension is prepared using RPMI 1640+10% FCS+50 μg/ml gentamicin sulfate with a cell concentration of approximately 5,000 cells/ml. The cell suspension is dispensed in Linbro 24-well plates; 1 ml/well. The plates are incubated for approximately 48 hours at 37° C. in a 5% CO2 atmosphere. At this time test compounds are added in the appropriate concentration. Ten μl of the appropriate dilution is added to each well for a titration test. The plates are reincubated an additional 60-65 hours at 37° C. in a 5% CO2 atmosphere. The cells are lysed using a mix of cationic surfactant, glacial acetic acid and sodium chloride. Two ml of the lysed cell suspension from each well is added to 8 ml of diluent. The number of nuclei is determined using a Coulter counter (ZBI model), and a percent growth for each drug concentration is calculated.

[2] = test system: lymphocytic leukemia P388; experiment: In vivo lymphocytic leukemia P388 test; set-up: species or system CD2 F1 mice; conditions: Mus musculus, P388, ip, intraperitoneal, once daily for five days, survival time treated/control, read-out: P388 in vivo T/C × 100
Description: Another test protocol is the in vivo lymphocytic leukemia P388 test. the animals used are either male or female CD2 F1 mice, six or seven animals per test group. The tumor transplant is by intraperitoneal injection of dilute ascitic fluid containing cells of lymphocytic leukemia P388. The test compounds are administered intraperitoneally once daily for five consecutive days at various doses following tumor inoculation. The animals are weighed and survivors are recorded on a regular basis for 30 days. A compound is designated "toxic" if, at a given dose, all animals die prior to four days after the first injection of drug. A ratio of survival time for treated (T)/control (C) animals is calculated. A criterion for efficacy is a ratio T/C times 100 greater than or equal to 125. See Cancer Chemotherapy Reports, Part 3, 3, 1 (1972) for a comprehensive discussion of the protocol.

Escherichia coli = experiment: In vitro antibacterial (ABMF) microdilution test, Escherichia coli; assay type: cell-based; conditions: Mueller-Hinton broth, 37° C., 16-24 hours, read-out: ABMF minimal inhibitory conc, E. coli
Source text: (§1) Still another test protocol is the in vitro antibacterial (ABMF) test which is a recognized standard microdilution susceptibility procedure in Mueller-Hinton broth against Gram-positive and Gram-negative bacterial test organisms. The procedure is a modification of a state-of-the-art procedure reported in Manual of Clinical Microbiology, Lennette, E. H., ed., by Barry, A. L. and C. Thornsberry at pages 463-474 and by Gavan, T. L. and A. L. Barry at pages 459-462, American Society for Microbiology, Washington, 1980.
(§2) In the test, a given bacterial culture is used to inoculate individual test wells of microdilution trays containing growth medium and test compound, the latter in a microdilution series: 1000, 333, 111, 37, 12, 4, 1.4, and 0.46 micrograms per milliliter. […] For convenience, values are reported for Escherichia coli, Corynebacterium Sp. ATCC 21698, Branhamella catarrhalis, Streptococcus pneumoniae, and Bacillus cereus.

[3] = test system: Corynebacterium Sp. ATCC 21698; experiment: In vitro antibacterial (ABMF) microdilution test, Corynebacterium Sp.; assay type: cell-based; conditions: ATCC21698, Mueller-Hinton broth, 37° C., 16-24 hours, read-out: ABMF minimal inhibitory conc, Coryn. Species
Source text: as §1, §2

Branhamella catarrhalis = experiment: In vitro antibacterial (ABMF) microdilution test, Branhamella catarrhalis; assay type: cell-based; conditions: Moraxella catarrhalis; Mueller-Hinton broth, 37° C., 16-24 hours; read-out: ABMF minimal inhibitory conc, B. cat.
Source text: as §1, §2

Streptococcus pneumoniae = experiment: In vitro antibacterial (ABMF) microdilution test, Streptococcus pneumoniae; assay type: cell-based; conditions: Mueller-Hinton broth, 37° C., 16-24 hours, read-out: ABMF minimal inhibitory conc, S. pneu.
Source text: as §1, §2

Bacillus cereus = experiment: In vitro antibacterial (ABMF) microdilution test, Bacillus cereus; assay type: cell-based; conditions: Mueller-Hinton broth, 37° C., 16-24 hours, read-out: ABMF minimal inhibitory conc, B. cer.
Source text: as §1, §2

| SMILES | IC50 [1] [nM] | IC50 (HCT-8 cells) [nM] | response vs control in vivo at 12.5 mg/kg [2] [%] | MIC (Escherichia coli) [µg/mL] | MIC [3] [µg/mL] | MIC (Branhamella catarrhalis) [µg/mL] | MIC (Streptococcus pneumoniae) [µg/mL] | MIC (Bacillus cereus) [µg/mL] | response vs control in vivo at 25 mg/kg [2] [%] | response vs control in vivo at 50 mg/kg [2] [%] | response vs control in vivo at 100 mg/kg [2] [%] | response vs control in vivo at 200 mg/kg [2] [%] |
| --- | --- | --- | --- | --- | --- | --- | --- | --- | --- | --- | --- | --- |
| CCN(CC)CCNc1ccc([N+](=O)[O-])c2[nH]c3ccc(O)cc3c(=O)c12 [Example 2, 1-[[2-(Diethylamino)ethyl]amino]-7-hydroxy-4-nitro-9(10H)-acridinone, methanesulfonate (1:1), hydrate (1:1)] | 6.7 | 4.5 | 250 | < 0.46 | < 0.46 | < 0.46 | < 0.46 | < 0.46 | – | – | – | – |
| CCN(CC)CCNc1ccc([N+](=O)[O-])c2[nH]c3ccc(OC)cc3c(=O)c12.CS(=O)(=O)O [Example 3, 1-[[2-(Diethylamino)ethyl]amino]-7-methoxy-4-nitro-9(10H)-acridinone, methanesulfonate (1:1)] | 2400 | 1100 | 126 | 111 | < 0.46 | < 0.46 | < 0.46 | 4.1 | 151 | 178 | 237 | 296 |
| CCOc1ccc2[nH]c3c([N+](=O)[O-])ccc(NCCN(CC)CC)c3c(=O)c2c1.CS(=O)(=O)O [Example 4, 1-[[2-(Diethylamino)ethyl]amino]-7-ethoxy-4-nitro-9(10H)-acridinone, methanesulfonate (1:1)] | 680 | 400 | 129 | > 1000 | 4.1 | 37 | > 1000 | > 1000 | 149 | 211 | 273 | – |
| CCN(CC)CCNc1ccc([N+](=O)[O-])c2[nH]c3ccc(N(C)C)cc3c(=O)c12.CS(=O)(=O)O [Example 7, 1-[[2-(Diethylamino)ethyl]amino]-7-(dimethylamino)-4-nitro-9(10H)-acridinone, methanesulfonate (1:1)] | 1300 | 560 | – | > 1000 | 111 | > 1000 | 37 | > 1000 | – | 33 | 169 | – |
| CN(C)CCNc1ccc([N+](=O)[O-])c2[nH]c3ccccc3c(=O)c12 [Example 8, 1-[[2-(Dimethylamino)ethyl]amino]-4-nitro-9(10H)-acridinone, methanesulfonate (1:1), hemihydrate] | 390 | 340 | – | 1.4 | < 0.46 | < 0.46 | < 0.46 | 4.1 | 142 | 185 | – | – |
| COc1ccc2[nH]c3c([N+](=O)[O-])ccc(NCCN(C)C)c3c(=O)c2c1.CS(=O)(=O)O [Example 9, 1-[[2-(Dimethylamino)ethyl]amino]-7-methoxy-4-nitro-9(10H)-acridinone, methanesulfonate (1:1)] | 260 | 890 | – | > 1000 | < 0.46 | < 0.46 | < 0.46 | > 1000 | 124 | 146 | 201 | 269 |
| CCOc1ccc2[nH]c3c([N+](=O)[O-])ccc(NCCN(C)C)c3c(=O)c2c1.CS(=O)(=O)O [Example 10, 1-[[2-(Dimethylamino)ethyl]amino]-7-ethoxy-4-nitro-9(10H)-acridinone, methanesulfonate (1:1)] | 810 | 360 | – | > 1000 | > 1000 | > 1000 | > 1000 | > 1000 | 128 | 162 | 193 | 260 |
